Twelve compounds from US9643955B2, “2-pyridyloxy-3-nitrile-4-substituted orexin receptor antagonists” (MERCK SHARP & DOHME CORP., priority 2012, dated 2017) can be followed below.

Molecules are shown by their SMILES.

Assay [1] addresses T1, hOX1R (Homo sapiens, UniProt O43613).
T1 sequence (O43613 1-425): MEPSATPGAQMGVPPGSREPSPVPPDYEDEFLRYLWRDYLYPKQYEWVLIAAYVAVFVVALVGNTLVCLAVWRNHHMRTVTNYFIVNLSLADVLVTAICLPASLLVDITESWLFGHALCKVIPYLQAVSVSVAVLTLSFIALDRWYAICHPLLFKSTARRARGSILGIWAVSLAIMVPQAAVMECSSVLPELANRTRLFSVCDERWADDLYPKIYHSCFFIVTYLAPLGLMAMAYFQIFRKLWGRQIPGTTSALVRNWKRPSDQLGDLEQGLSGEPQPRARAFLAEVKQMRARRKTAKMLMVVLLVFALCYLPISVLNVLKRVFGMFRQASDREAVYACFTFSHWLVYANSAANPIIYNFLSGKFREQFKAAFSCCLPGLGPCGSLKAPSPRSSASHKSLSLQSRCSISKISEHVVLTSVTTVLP
The assay is described as follows: FLIPR Ca2+ Flux Assay, hOX1R. Details: expressed in transfected cells; host or cells: CHO cells. As to conditions: CHO cells expressing orexin-1 receptor; agonist 70 pM Ala-6,12 orexin-A. In kind it is cell-based. Background: Calcium assays in cells follow changes in intracellular calcium, usually with a dye or a luminescent sensor.

A further assay addresses T2, human orexin-2 receptor (Homo sapiens, UniProt O43614).
T2 construct: expressed in transfected cells; host or cells: CHO cells
T2 sequence (O43614 1-444): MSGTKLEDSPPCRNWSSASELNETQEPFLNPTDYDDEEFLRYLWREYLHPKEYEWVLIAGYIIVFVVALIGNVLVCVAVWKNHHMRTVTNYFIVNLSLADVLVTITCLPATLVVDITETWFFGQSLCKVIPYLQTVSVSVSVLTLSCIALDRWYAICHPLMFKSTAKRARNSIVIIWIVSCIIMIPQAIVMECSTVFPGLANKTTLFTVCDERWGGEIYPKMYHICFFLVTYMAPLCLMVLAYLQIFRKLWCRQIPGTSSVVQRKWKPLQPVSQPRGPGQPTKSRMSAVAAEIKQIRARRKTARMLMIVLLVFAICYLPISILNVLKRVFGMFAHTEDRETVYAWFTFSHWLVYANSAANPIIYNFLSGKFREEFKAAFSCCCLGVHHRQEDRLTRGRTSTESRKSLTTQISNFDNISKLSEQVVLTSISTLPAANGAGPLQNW
Description: FLIPR Ca2+ Flux Assay, hOX2R. Type of assay: cell-based. The note with it: CHO cells expressing the human orexin-2 receptor; agonist 70 pM Ala-6,12 orexin-A. How it is done: The utility of the compounds in accordance with the present invention as orexin receptor OX1R and/or OX2R antagonists may be readily determined without undue experimentation by methodology well known in the art, including the “FLIPR Ca^2+ Flux Assay” (Okumura et al., Biochem. Biophys. Res. Comm. 280:976-981, 2001). In a typical experiment the OX1 and OX2 receptor antagonistic activity of the compounds of the present invention was determined in accordance with the following experimental method. For intracellular calcium measurements, Chinese hamster ovary (CHO) cells expressing the rat orexin-1 receptor or the human orexin-2 receptor, are grown in Iscove's modified DMEM containing 2 mM L-glutamine, […], 1% hypoxanthine-thymidine supplement, 100 U/ml penicillin, 100 μg/ml streptomycin and 10% heat-inactivated fetal calf serum (FCS). The cells are seeded at 20,000 cells/well into Becton-Dickinson black 384-well clear bottom sterile plates coated with poly-D-lysine. All reagents were from GIBCO-Invitrogen Corp. The seeded plates are incubated overnight at 37° C. and 5% CO2. Ala-6,12 human orexin-A as the agonist is prepared as a 1 mM stock solution in 1% bovine serum albumin (BSA) and diluted in assay buffer (HBSS containing 20 mM HEPES, 0.1% BSA and 2.5 mM probenecid, pH7.4) for use in the assay at a final concentration of 70 pM. Test compounds are prepared as 10 mM stock solution in DMSO, then diluted in 384-well plates, first in DMSO, then assay buffer. On the day of the assay, cells are washed 3 times with 100 μl assay buffer and then incubated for 60 min (37° C., 5% CO2) in 60 μl assay buffer containing 1 μM Fluo-4AM ester, 0.02% pluronic acid, and 1% BSA. The dye loading solution is then aspirated and cells are washed 3 times with 100 μl assay buffer. 30 μl of that same buffer is left in each well. Within the Fluorescent Imaging Plate Reader (FLIPR, Molecular Devices), test compounds are added to the plate in a volume of 25 μl, incubated for 5 min and finally 25 μl of agonist is added. Fluorescence is measured for each well at 1 second intervals for 5 minutes and the height of each fluorescence peak is compared to the height of the fluorescence peak induced by 70 pM Ala-6,12 orexin-A with buffer in place of antagonist. For each antagonist, IC50 value (the concentration of compound needed to inhibit 50% of the agonist response) is determined Alternatively, compound potency can be assessed by a radioligand binding assay (described in Bergman et. al. Bioorg. Med. Chem. Lett. 2008, 18, 1425-1430) in which the inhibition constant (Ki) is determined in membranes prepared from CHO cells expressing either the OX1 or OX2 receptor. The intrinsic orexin receptor antagonist activity of a compound which may be used in the present invention may be determined by these assays.

For a further assay, the target named is T3, hOX2R (Homo sapiens, UniProt O43614).
T3 construct: expressed in transfected cells; host or cells: membranes of CHO cells
T3 sequence (O43614 1-444): T2 sequence (O43614 1-444)
Description: radioligand binding assay, hOX2R. As to conditions: membranes prepared from CHO cells expressing the OX2 receptor; read-out: hOX2R BIND hKi. The procedure: (§1) The utility of the compounds in accordance with the present invention as orexin receptor OX1R and/or OX2R antagonists may be readily determined without undue experimentation by methodology well known in the art, including the “FLIPR Ca^2+ Flux Assay” (Okumura et al., Biochem. Biophys. Res. Comm. 280:976-981, 2001). In a typical experiment the OX1 and OX2 receptor antagonistic activity of the compounds of the present invention was determined in accordance with the following experimental method. For intracellular calcium measurements, Chinese hamster ovary (CHO) cells expressing the rat orexin-1 receptor or the human orexin-2 receptor, are grown in Iscove's modified DMEM containing 2 mM L-glutamine, […], 1% hypoxanthine-thymidine supplement, 100 U/ml penicillin, 100 μg/ml streptomycin and 10% heat-inactivated fetal calf serum (FCS). The cells are seeded at 20,000 cells/well into Becton-Dickinson black 384-well clear bottom sterile plates coated with poly-D-lysine. All reagents were from GIBCO-Invitrogen Corp. The seeded plates are incubated overnight at 37° C. and 5% CO2. Ala-6,12 human orexin-A as the agonist is prepared as a 1 mM stock solution in 1% bovine serum albumin (BSA) and diluted in assay buffer (HBSS containing 20 mM HEPES, 0.1% BSA and 2.5 mM probenecid, pH7.4) for use in the assay at a final concentration of 70 pM. Test compounds are prepared as 10 mM stock solution in DMSO, then diluted in 384-well plates, first in DMSO, then assay buffer. On the day of the assay, cells are washed 3 times with 100 μl assay buffer and then incubated for 60 min (37° C., 5% CO2) in 60 μl assay buffer containing 1 μM Fluo-4AM ester, 0.02% pluronic acid, and 1% BSA. The dye loading solution is then aspirated and cells are washed 3 times with 100 μl assay buffer. 30 μl of that same buffer is left in each well. Within the Fluorescent Imaging Plate Reader (FLIPR, Molecular Devices), test compounds are added to the plate in a volume of 25 μl, incubated for 5 min and finally 25 μl of agonist is added. Fluorescence is measured for each well at 1 second intervals for 5 minutes and the height of each fluorescence peak is compared to the height of the fluorescence peak induced by 70 pM Ala-6,12 orexin-A with buffer in place of antagonist. […] The intrinsic orexin receptor antagonist activity of a compound which may be used in the present invention may be determined by these assays.

Assay [2] concerns the target T1, hOX1R. The assay is described as follows: radioligand binding assay, hOX1R. Also on record: expressed in transfected cells; host or cells: membranes of CHO cells. As to conditions: membranes prepared from CHO cells expressing the OX1 receptor; read-out: hOX1R BIND hKi. The procedure: as §1

One may read the IC50 as the concentration that inhibits the measured activity by half. Higher therefore signals lower potency. Regarding `Cc1ccnc(O[C@@H]2CC[C@@H](C)N(C(=O)c3ccc(Cl)cc3-n3nccn3)C2)c1C#N` [Example 3, 2-{[(3R,6R)-1-{[4-Chloro-2(2H-1,2,3-triazol-2-yl)phenyl]carbonyl}-6-methylpiperidin-3-yl]oxy}-4-methylpyridine-3-carbonitrile], the IC50 on hOX1R [1] was 3710 nM; on human orexin-2 receptor, 73.6 nM.
Take `Cc1ccnc(O[C@@H]2CC[C@@H](C)N(C(=O)c3ccccc3-n3nccn3)C2)c1C#N` [Example 2, 4-Methyl-2{[(3R,6R)-6-methyl-1-{[2-(2H-1,2,3-triazol-2-yl)phenyl]carbonyl}piperidin-3-yl]oxy}pyridine-3-carbonitrile]: the IC50 worked out at 464 nM on hOX1R [1] and 9.8 nM at human orexin-2 receptor.
`Cc1ccnc(O[C@@H]2CC[C@@H](C)N(C(=O)c3cnccc3-n3nccn3)C2)c1C#N` [Example 4, 4-methyl-2-{[(3R,6R)-6-methyl-1-{[4-(2H-1,2,3-triazol-2-yl)pyridin-3-yl]carbonyl}piperidin-3-yl]oxy}pyridine-3-carbonitrile]: the Ki on hOX2R came to 54 nM; at hOX1R [2] it was 1290 nM.
Turning to `COc1cccc(-n2nccn2)c1C(=O)N1C[C@H](Oc2nccc(C)c2C#N)CC[C@H]1C` [Example 6, 2-{[(3R,6R)-1-{[2-methoxy-6-(2H-1,2,3-triazol-2-yl)phenyl]carbonyl}-6-methylpiperidin-3-yl]oxy}-4-methylpyridine-3-carbonitrile], the IC50 was determined as 1160 nM at hOX1R [1] and 67.6 nM at human orexin-2 receptor.
As to `Cc1ccnc(O[C@@H]2CC[C@@H](C)N(C(=O)c3c(F)cccc3-n3nccn3)C2)c1C#N` [Example 5, 2-{[(3R,6R)-1-{[2-fluoro-6-(2H-1,2,3-triazol-2-yl)phenyl]carbonyl}-6-methylpiperidin-3-yl]oxy}-4-methylpyridine-3-carbonitrile], the Ki at hOX2R is 34 nM; at hOX1R [2] it was 3610 nM.
The matching figures for `COc1ccc(C(=O)N2C[C@H](Oc3nccc(C)c3C#N)CC[C@H]2C)c(-n2nccn2)c1` [Example 9, 2-{[(3R,6R)-1-{[4-methoxy-2-(2H-1,2,3-triazol-2-yl)phenyl]carbonyl}-6-methylpiperidin-3-yl]oxy}-4-methylpyridine-3-carbonitrile]: 60 nM and 5660 nM.
For `Cc1ccnc(O[C@@H]2CC[C@@H](C)N(C(=O)c3cccc(C)c3-n3nccn3)C2)c1C#N` [Example 7, 4-methyl-2-{[(3R,6R)-6-methyl-1-{[3-methyl-2-(2H-1,2,3-triazol-2-yl)phenyl]carbonyl}piperidin-3-yl]oxy}pyridine-3-carbonitrile], the IC50 was 457 nM on hOX1R [1] and 20.3 nM on human orexin-2 receptor.
`Cc1ccnc(O[C@@H]2CC[C@@H](C)N(C(=O)c3cccc(F)c3-n3nccn3)C2)c1C#N` [Example 10, 2-{[(3R,6R)-1-{[3-fluoro-2-(2H-1,2,3-triazol-2-yl)phenyl]carbonyl}-6-methylpiperidin-3-yl]oxy}-4-methylpyridine-3-carbonitrile]: the IC50 was 3650 nM at hOX1R [1] and 42.6 nM at human orexin-2 receptor.
For `Cc1ccc(-n2nccn2)c(C(=O)N2C[C@H](Oc3nccc(C)c3C#N)CC[C@H]2C)c1` [Example 11, 4-methyl-2-{[(3R,6R)-6-methyl-1-{[5-methyl-2-(2H-1,2,3-triazol-2-yl)phenyl]carbonyl}piperidin-3-yl]oxy}pyridine-3-carbonitrile], the values for the Ki on hOX2R and at hOX1R [2] were 24 nM and 7 nM, respectively.
On to `Cc1ccnc(O[C@@H]2CC[C@@H](C)N(C(=O)c3ccc(F)cc3-n3nccn3)C2)c1C#N` [Example 8, 2-{[(3R,6R)-1-{[4-fluoro-2-(2H-1,2,3-triazol-2-yl)phenyl]carbonyl}-6-methylpiperidin-3-yl]oxy}-4-methylpyridine-3-carbonitrile], for which the figures for the IC50 on hOX1R [1] and at human orexin-2 receptor were 7390 nM and 59.8 nM, respectively.
With `CSc1ccnc(O[C@@H]2CC[C@@H](C)N(C(=O)c3ccccc3-n3nccn3)C2)c1C#N` [Example 1, 4-(Methylsulfanyl)-2-{[(3R,6R)-6-methyl-1-{[2-(2H-1,2,3-triazol-2-yl)phenyl]carbonyl}-piperidin-3-yl]oxy}pyridine-3-carbonitrile], the figures for the IC50 at hOX1R [1] and at human orexin-2 receptor were 7440 nM and 39 nM, respectively.
The matching figures for `COc1ccc(C(=O)N2C[C@H](Oc3nccc(C)c3C#N)CC[C@H]2C)c(-n2nccn2)n1` [Example 12, 2-{[(3R,6R)-1-{[6-methoxy-2-(2H-1,2,3-triazol-2-yl)pyridin-3-yl]carbonyl}-6-methylpiperidin-3-yl]oxy}-4-methylpyridine-3-carbonitrile]: 10000 nM and 280 nM.
